This note sets out measurements from patent US20140213513A1 (Sanofi, priority 2012, published 2014).

*1 amine or outer side, *2 acyl side, *3 side chain or, on linkers, in order; H or OH if unused. Where a SMILES comes first, the peptide text is derived from it. Side-chain parts run from the residue outwards. [ ]: non-standard residue; d: D form. The star is where a group is joined. γGlu = O=C(O)[C@H](CCC(=O)[*:2])N[*:1]; Stearoyl = CCCCCCCCCCCCCCCCCC(=O)*; Palmitoyl = CCCCCCCCCCCCCCCC(=O)*; Aib = CC(C)(N)C(=O)O

Common to all, as to format: cell-based
Common to all, as to conditions: Table 7; cAMP formation
For orientation: cAMP levels reflect the balance of adenylyl cyclase and phosphodiesterase activity.

Test [1] concerns the target T1, human GLP-1 receptor (hGLP-1 R) (Homo sapiens, UniProt P43220).
T1 construct: expressed in transfected cells
Put plainly: cAMP response of HEK-293 cells stably expressing human GLP-1 receptor (HTRF). In outline:
(§1)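 Stably transfected HEK-293 cells, accutase-harvested; assay buffer 1×HBSS/20 mM HEPES/0.1% BSA/2 mM IBMX; 400000 cells/ml; compound 30 min, RT; cAMP by HTRF kit.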
A general note: In TR-FRET formats the signal depends on donor and acceptor labels being close together.

Test [2] addresses T2, human glucagon receptor (hGLUC R) (Homo sapiens, UniProt P47871).
T2 construct: expressed in transfected cells
Put plainly: cAMP response of HEK-293 cells stably expressing human glucagon receptor (HTRF). In outline:
as §1

For test [3], the target named is T3, human GIP receptor (hGIP R) (Homo sapiens, UniProt P48546).
T3 construct: expressed in transfected cells
T3 sequence (P48546 22-466): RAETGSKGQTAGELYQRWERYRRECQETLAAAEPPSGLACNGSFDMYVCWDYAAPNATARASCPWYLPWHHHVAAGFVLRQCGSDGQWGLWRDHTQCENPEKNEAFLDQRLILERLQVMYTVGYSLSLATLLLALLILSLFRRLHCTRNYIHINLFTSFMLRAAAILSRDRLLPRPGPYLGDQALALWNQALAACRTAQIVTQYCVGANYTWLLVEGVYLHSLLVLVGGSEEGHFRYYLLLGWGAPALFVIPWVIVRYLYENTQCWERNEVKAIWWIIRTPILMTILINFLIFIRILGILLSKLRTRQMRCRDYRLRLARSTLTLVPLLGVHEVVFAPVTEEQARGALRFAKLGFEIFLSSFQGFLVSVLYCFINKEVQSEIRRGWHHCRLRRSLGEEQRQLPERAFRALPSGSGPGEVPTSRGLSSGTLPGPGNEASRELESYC
Put plainly: cAMP response of HEK-293 cells stably expressing human GIP receptor (HTRF). In outline:
as §1

T2 sequence (P47871 26-477): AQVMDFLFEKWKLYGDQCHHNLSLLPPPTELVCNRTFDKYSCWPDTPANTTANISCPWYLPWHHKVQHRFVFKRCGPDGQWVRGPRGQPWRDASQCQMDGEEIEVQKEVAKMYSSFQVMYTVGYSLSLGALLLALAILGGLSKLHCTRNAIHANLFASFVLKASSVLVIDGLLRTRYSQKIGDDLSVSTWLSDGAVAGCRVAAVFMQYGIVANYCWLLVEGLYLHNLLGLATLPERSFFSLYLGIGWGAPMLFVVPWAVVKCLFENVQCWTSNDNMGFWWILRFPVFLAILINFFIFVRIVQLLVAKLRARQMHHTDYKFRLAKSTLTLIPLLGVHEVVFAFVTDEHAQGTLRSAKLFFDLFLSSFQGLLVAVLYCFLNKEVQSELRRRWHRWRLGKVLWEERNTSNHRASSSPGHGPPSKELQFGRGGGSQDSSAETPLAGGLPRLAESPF
T1 sequence (P43220 24-463): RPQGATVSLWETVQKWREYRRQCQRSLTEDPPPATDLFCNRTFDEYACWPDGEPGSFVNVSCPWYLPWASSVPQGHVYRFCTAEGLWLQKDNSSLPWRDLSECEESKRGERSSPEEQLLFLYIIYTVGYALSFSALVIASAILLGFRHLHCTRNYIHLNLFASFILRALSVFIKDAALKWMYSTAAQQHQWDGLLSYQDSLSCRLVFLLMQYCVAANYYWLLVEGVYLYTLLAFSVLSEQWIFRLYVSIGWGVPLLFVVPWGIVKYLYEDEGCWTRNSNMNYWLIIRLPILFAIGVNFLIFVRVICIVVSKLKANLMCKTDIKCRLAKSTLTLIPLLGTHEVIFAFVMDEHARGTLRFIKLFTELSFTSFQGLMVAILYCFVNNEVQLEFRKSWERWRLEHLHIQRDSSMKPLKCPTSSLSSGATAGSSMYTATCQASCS

Consider `CCCCCCCCCCCCCCCC(=O)N[C@@H](CCC(=O)NCCCC[C@H](NC(=O)[C@H](CCC(N)=O)NC(=O)[C@@H](NC(=O)[C@H](CO)NC(=O)[C@H](CC(C)C)NC(=O)[C@H](CC(=O)O)NC(=O)[C@H](CO)NC(=O)[C@@H](NC(=O)[C@H](Cc1ccccc1)NC(=O)[C@@H](NC(=O)CNC(=O)[C@H](CCC(N)=O)NC(=O)C(C)(C)NC(=O)[C@@H](N)Cc1ccc(O)cc1)[C@@H](C)O)[C@@H](C)O)[C@@H](C)CC)C(=O)N[C@@H](CC(=O)O)C(=O)N[C@@H](CO)C(=O)N[C@@H](CCCNC(=N)N)C(=O)N[C@@H](CCCNC(=N)N)C(=O)N[C@@H](C)C(=O)N[C@@H](CCC(N)=O)C(=O)N[C@@H](CC(=O)O)C(=O)N[C@@H](Cc1ccccc1)C(=O)N[C@H](C(=O)N[C@@H](CCC(=O)O)C(=O)N[C@@H](Cc1c[nH]c2ccccc12)C(=O)N[C@@H](CC(C)C)C(=O)N[C@@H](CCCCN)C(=O)N[C@@H](C)C(=O)NCC(=O)NCC(=O)N1CCC[C@H]1C(=O)N[C@@H](CO)C(=O)N[C@@H](CO)C(=O)NCC(=O)N[C@@H](C)C(=O)N1CCC[C@H]1C(=O)N1CCC[C@H]1C(=O)N1CCC[C@H]1C(=O)N[C@@H](CO)C(N)=O)[C@@H](C)CC)C(=O)O` [SEQ ID NO: 52, Y-Aib-Q-G-T-F-T-S-D-L-S-I-Q-K(yE-x53)-DSRRAQDFIEWLKAGGPSSGAPPPS-NH2] (H-Y[Aib]QGTFTSDLSIQK([γGlu-Palmitoyl])DSRRAQDFIEWLKAGGPSSGAPPPS-NH2), for which the 50% effective concentration (EC50) is 0.0256 nM in test [1], 0.0133 nM in test [2] and 0.182 nM in test [3].
Taken in the same sequence, the figures for `CCCCCCCCCCCCCCCC(=O)N[C@@H](CCC(=O)NCCCC[C@H](NC(=O)[C@H](CCC(N)=O)NC(=O)[C@@H](NC(=O)[C@H](CO)NC(=O)[C@H](CC(C)C)NC(=O)[C@H](CC(=O)O)NC(=O)[C@H](CO)NC(=O)[C@@H](NC(=O)[C@H](Cc1ccccc1)NC(=O)[C@@H](NC(=O)CNC(=O)[C@H](CCC(=O)O)NC(=O)C(C)(C)NC(=O)[C@@H](N)Cc1ccc(O)cc1)[C@@H](C)O)[C@@H](C)O)[C@@H](C)CC)C(=O)N[C@@H](CC(=O)O)C(=O)N[C@@H](CCCCN)C(=O)N[C@@H](CCCNC(=N)N)C(=O)N[C@@H](C)C(=O)N[C@@H](C)C(=O)N[C@@H](CCC(N)=O)C(=O)N[C@@H](CC(C)C)C(=O)N[C@@H](Cc1ccccc1)C(=O)N[C@H](C(=O)N[C@@H](CCC(=O)O)C(=O)N[C@@H](Cc1c[nH]c2ccccc12)C(=O)N[C@@H](CC(C)C)C(=O)N[C@@H](CCCCN)C(=O)N[C@@H](CC(N)=O)C(=O)NCC(=O)NCC(=O)N1CCC[C@H]1C(=O)N[C@@H](CO)C(=O)N[C@@H](CO)C(=O)NCC(=O)N[C@@H](C)C(=O)N1CCC[C@H]1C(=O)N1CCC[C@H]1C(=O)N1CCC[C@H]1C(=O)N[C@@H](CO)C(N)=O)[C@@H](C)CC)C(=O)O` [SEQ ID NO: 55, Y-Aib-E-G-T-F-T-S-D-L-S-I-Q-K(yE-x53)-DKRAAQLFIEWLKNGGPSSGAPPPS-NH2] (H-Y[Aib]EGTFTSDLSIQK([γGlu-Palmitoyl])DKRAAQLFIEWLKNGGPSSGAPPPS-NH2) were 0.0161 nM, 18.3 nM and 0.0156 nM.
In the same order, the values of `CCCCCCCCCCCCCCCC(=O)N[C@@H](CCC(=O)NCCCC[C@H](NC(=O)[C@H](CCC(N)=O)NC(=O)[C@H](CCCCN)NC(=O)[C@H](CO)NC(=O)[C@H](CC(C)C)NC(=O)[C@H](CC(=O)O)NC(=O)[C@H](CO)NC(=O)[C@@H](NC(=O)[C@H](Cc1ccccc1)NC(=O)[C@@H](NC(=O)CNC(=O)[C@H](CCC(N)=O)NC(=O)C(C)(C)NC(=O)[C@@H](N)Cc1ccc(O)cc1)[C@@H](C)O)[C@@H](C)O)C(=O)N[C@@H](CC(=O)O)C(=O)N[C@@H](CO)C(=O)N[C@@H](CCCNC(=N)N)C(=O)N[C@@H](C)C(=O)N[C@@H](C)C(=O)N[C@@H](CCCNC(=N)N)C(=O)N[C@@H](CC(=O)O)C(=O)N[C@@H](Cc1ccccc1)C(=O)N[C@H](C(=O)N[C@@H](CCC(=O)O)C(=O)N[C@@H](Cc1c[nH]c2ccccc12)C(=O)N[C@@H](CC(C)C)C(=O)N[C@@H](CCCCN)C(=O)N[C@@H](C)C(=O)NCC(=O)NCC(=O)N1CCC[C@H]1C(=O)N[C@@H](CO)C(=O)N[C@@H](CO)C(=O)NCC(=O)N[C@@H](C)C(=O)N1CCC[C@H]1C(=O)N1CCC[C@H]1C(=O)N1CCC[C@H]1C(=O)N[C@@H](CO)C(N)=O)[C@@H](C)CC)C(=O)O` [SEQ ID NO: 56, Y-Aib-Q-G-T-F-T-S-D-L-S-K-Q-K(yE-x53)-DSRAARDFIEWLKAGGPSSGAPPPS-NH2] (H-Y[Aib]QGTFTSDLSKQK([γGlu-Palmitoyl])DSRAARDFIEWLKAGGPSSGAPPPS-NH2) are 0.0046 nM, 0.0199 nM and 0.162 nM.
With `CCCCCCCCCCCCCCCC(=O)N[C@@H](CCC(=O)NCCCC[C@H](NC(=O)[C@H](CCC(N)=O)NC(=O)[C@@H](NC(=O)[C@H](CO)NC(=O)[C@H](CC(C)C)NC(=O)[C@H](CC(=O)O)NC(=O)[C@H](CO)NC(=O)[C@@H](NC(=O)[C@H](Cc1ccccc1)NC(=O)[C@@H](NC(=O)CNC(=O)[C@H](CCC(=O)O)NC(=O)C(C)(C)NC(=O)[C@@H](N)Cc1ccc(O)cc1)[C@@H](C)O)[C@@H](C)O)[C@@H](C)CC)C(=O)N[C@@H](CCC(=O)O)C(=O)N[C@@H](CCC(=O)O)C(=O)N[C@@H](CCCNC(=N)N)C(=O)N[C@@H](C)C(=O)N[C@@H](C)C(=O)N[C@@H](Cc1c[nH]cn1)C(=O)N[C@@H](CCC(=O)O)C(=O)N[C@@H](Cc1ccccc1)C(=O)N[C@H](C(=O)N[C@@H](CCC(=O)O)C(=O)N[C@@H](Cc1c[nH]c2ccccc12)C(=O)N[C@@H](CC(C)C)C(=O)N[C@@H](CCCCN)C(=O)N[C@@H](CCCNC(=N)N)C(=O)NC(C)(C)C(=O)NCC(=O)N1CCC[C@H]1C(=O)N[C@@H](CO)C(=O)N[C@@H](CO)C(=O)NCC(=O)N[C@@H](C)C(=O)N1CCC[C@H]1C(=O)N1CCC[C@H]1C(=O)N1CCC[C@H]1C(=O)N[C@@H](CO)C(=O)N[C@@H](CCCCN)C(N)=O)[C@@H](C)CC)C(=O)O` [SEQ ID NO: 57, Y-Aib-E-G-T-F-T-S-D-L-S-I-Q-K(yE-x53)-E-E-R-A-A-H-E-F-I-E-W-L-K-R-Aib-G-P-S-S-G-A-P-P-P-S-K-NH2], the values for the EC50 in test [1], in test [2] and in test [3] were 0.0071 nM, 14.4 nM and 0.0157 nM, respectively.
Take `CCCCCCCCCCCCCCCCCC(=O)N[C@@H](CCC(=O)NCCCC[C@H](NC(=O)[C@H](CCC(N)=O)NC(=O)[C@@H](NC(=O)[C@H](CO)NC(=O)[C@H](CC(C)C)NC(=O)[C@H](CC(=O)O)NC(=O)[C@H](CO)NC(=O)[C@@H](NC(=O)[C@H](Cc1ccccc1)NC(=O)[C@@H](NC(=O)CNC(=O)[C@H](CCC(=O)O)NC(=O)C(C)(C)NC(=O)[C@@H](N)Cc1ccc(O)cc1)[C@@H](C)O)[C@@H](C)O)[C@@H](C)CC)C(=O)N[C@@H](CCC(=O)O)C(=O)N[C@@H](CO)C(=O)N[C@@H](CCCCN)C(=O)N[C@@H](C)C(=O)N[C@@H](C)C(=O)N[C@@H](Cc1c[nH]cn1)C(=O)N[C@@H](CCC(=O)O)C(=O)N[C@@H](Cc1ccccc1)C(=O)N[C@H](C(=O)N[C@@H](CCC(=O)O)C(=O)N[C@@H](Cc1c[nH]c2ccccc12)C(=O)N[C@@H](CC(C)C)C(=O)N[C@@H](CCCCN)C(=O)N[C@@H](C)C(=O)NCC(=O)NCC(=O)N1CCC[C@H]1C(=O)N[C@@H](CO)C(=O)N[C@@H](CO)C(=O)NCC(=O)N[C@@H](C)C(=O)N1CCC[C@H]1C(=O)N1CCC[C@H]1C(=O)N1CCC[C@H]1C(=O)N[C@@H](CO)C(=O)N[C@@H](CCCCN)C(N)=O)[C@@H](C)CC)C(=O)O` [SEQ ID NO: 58, Y-Aib-E-G-T-F-T-S-D-L-S-I-Q-K(yE-x70)-ESKAAHEFIEWLKAGGPSSGAPPPSK-NH2] (H-Y[Aib]EGTFTSDLSIQK([γGlu-Stearoyl])ESKAAHEFIEWLKAGGPSSGAPPPSK-NH2): the EC50 in test [1] amounted to 0.0125 nM; in test [2], 16 nM; in test [3] it was 0.0086 nM.
Taken in the same sequence, the figures for `CCCCCCCCCCCCCCCC(=O)N[C@@H](CCC(=O)NCCCC[C@H](NC(=O)[C@H](CCC(N)=O)NC(=O)[C@@H](NC(=O)[C@H](CO)NC(=O)[C@H](CC(C)C)NC(=O)[C@H](CC(=O)O)NC(=O)[C@H](CO)NC(=O)[C@@H](NC(=O)[C@H](Cc1ccccc1)NC(=O)[C@@H](NC(=O)CNC(=O)[C@H](CCC(=O)O)NC(=O)C(C)(C)NC(=O)[C@@H](N)Cc1ccc(O)cc1)[C@@H](C)O)[C@@H](C)O)[C@@H](C)CC)C(=O)N[C@@H](CCC(=O)O)C(=O)N[C@@H](CCCCN)C(=O)N[C@@H](CCCNC(=N)N)C(=O)N[C@@H](C)C(=O)N[C@@H](C)C(=O)N[C@@H](Cc1c[nH]cn1)C(=O)N[C@@H](CCC(=O)O)C(=O)N[C@@H](Cc1ccccc1)C(=O)N[C@H](C(=O)N[C@@H](CCC(=O)O)C(=O)N[C@@H](Cc1c[nH]c2ccccc12)C(=O)N[C@@H](CC(C)C)C(=O)N[C@@H](CCCCN)C(=O)N[C@@H](CC(N)=O)C(=O)N[C@H](C(=O)NCC(=O)N1CCC[C@H]1C(=O)N[C@@H](CO)C(=O)N[C@@H](CO)C(=O)NCC(=O)N[C@@H](C)C(=O)N1CCC[C@H]1C(=O)N1CCC[C@H]1C(=O)N1CCC[C@H]1C(=O)N[C@@H](CO)C(N)=O)[C@@H](C)O)[C@@H](C)CC)C(=O)O` [SEQ ID NO: 59, Y-Aib-E-G-T-F-T-S-D-L-S-I-Q-K(yE-x53)-EKRAAHEFIEWLKNTGPSSGAPPPS-NH2] (H-Y[Aib]EGTFTSDLSIQK([γGlu-Palmitoyl])EKRAAHEFIEWLKNTGPSSGAPPPS-NH2) were 0.0075 nM, 12.3 nM and 0.0175 nM.

Broadly, the EC50 is the midpoint of the concentration-response curve. The low end stands for greater potency, the high end for weaker potency.
